Like-named read-outs stand apart in the source and are kept apart here.
Legend:
[1] = Rotorod toxicity test (Tox), mice; type: in vivo, male Carworth Farms No. 1 mice
Procedure: The Rotorod test is used to evaluate neurotoxicity. The animal is placed on a 1 inch diameter knurled plastic rod rotating at 6 rpm. Normal mice can remain on a rod rotating at this speed indefinitely. Neurologic toxicity is defined as the failure of the animal to remain on the rod for 1 minute, and is expressed as:

[2] = system: Maximal electroshock seizures; assay: MES--Maximal Electroshock Seizure Test, mice; type: in vivo, male Carworth Farms No. 1 mice; settings: Mus musculus
From the text: Maximal electroshock seizures are elicited with a 60 cycle alternating current of 50 mA intensity (5-7 times that necessary to elicit minimal electroshock seizures) delivered for 0.2 sec via corneal electrodes. A drop of 0.9% saline is instilled in the eye prior to application of the electrodes in order to prevent the death of the animal. Abolition of the hind limb tonic extension component of the seizure is defined as protection and results are expressed as:

[3] = system: Maximal electroshock seizures; assay: MES--Maximal Electroshock Seizure Test, rats; type: in vivo; settings: Rattus norvegicus, oral
Procedure: The utility of the aforementioned compound as an anticonvulsant is determined by generating a compound profile using three tests. The tests employed are described in Epilepsia 19 (1978) 409-428 which is incorporated by reference. Maximal electroshock seizures are elicited with a 60 cycle alternating current of 50 mA intensity (5-7 times that necessary to elicit minimal electroshock seizures) delivered for 0.2 sec via corneal electrodes. A drop of 0.9% saline is instilled in the eye prior to application of the electrodes in order to […]. Abolition of the hind limb tonic extension component of the seizure is defined as protection and results are expressed as: number of animals protected/number of animals tested.

[4] = system: Pentylenetetrazol (Metrazol) seizure; assay: sc Met--Subcutaneous Pentylenetetrazol (Metrazol) Seizure Threshold Test, mice; type: in vivo, male Carworth Farms No. 1 mice; settings: for ED50 sc Met: intraperitoneal
Procedure: (§1) The utility of the aforementioned compound as an anticonvulsant is determined by generating a compound profile using three tests. The tests employed are described in Epilepsia 19 (1978) 409-428 which is incorporated by reference.
The tests were performed by the National Institute of Neurological and Communicative Disorders and Stroke and used male Carworth Farms No. 1 mice. The compounds are employed at at least 3 dose levels (30, 100, 300 mg/kg) in the following three tests.
sc Met--Subcutaneous Pentylenetetrazol (Metrazol®) Seizure Threshold Test
(§2) The animal is observed for 30 minutes. Failure to observe even a threshold seizure (a single episode of clonic spasms of at least 5 sec duration) is defined as protection and the results are expressed as: […]
(§3) number of animals protected/number of animals tested.

[5] = system: Pentylenetetrazol (Metrazol) seizure; assay: sc Met--Subcutaneous Pentylenetetrazol (Metrazol) Seizure Threshold Test, rats; type: in vivo; settings: oral
Procedure: as §1, §2, §3

Bicuculline = Bicuculline test, mice; type: in vivo
Strychnine = Strychnine test, mice; type: in vivo; settings: intraperitoneal
[6] = mouse, in vivo, po; cited from earlier work
[7] = rat, in vivo, po; cited from earlier work
[8] = Rotorod toxicity test (Tox), rats; type: in vivo; settings: for TD50: rat, in vivo, po
Picrotoxin = Picrotoxin test, mice; type: in vivo; settings: intraperitoneal

Compound	ED50 ([2]; oral, read-out: MES-ED50)	ED50 [3]	TD50 [8]	ED50 sc Met [4]	sc Met-ED50 ([4]; oral)	sc Met-ED50 [5]	ED50 Bicuculline (Bicuculline; intraperitoneal, mice)	ED50 Picrotoxin (Picrotoxin)	other results
CCC1(c2ccccc2)NC(=O)N(C)C1=O (stereo not drawn) [MEPHENYTOIN]	37 mg/kg	10 mg/kg							TD50 ([1]; intraperitoneal, mice): 153.82 mg/kg; ED50 ([4]; Mus musculus, oral): 53 mg/kg; ED50 ([5]; Rattus norvegicus): 105 mg/kg; ED50 (Bicuculline; Mus musculus, ip, read-out: ED50 Bicuculline): 124 mg/kg; Max. Prot. (Strychnine) (Strychnine; at 70-150 mg/kg): 50%; ROTOROD TD50 [6]: 97.0 mg/kg; ROTOROD TD50 [7]: 143 mg/kg
O=C1NC(=O)C(c2ccccc2)(c2ccccc2)N1 [PHENYTOIN]			> 3000 mg/kg	Potentiates	Ineffective	Ineffective	Potentiates	Potentiates	Max. Prot. (Strychnine) (Strychnine; at 55-100 mg/kg): 50%
Cc1cc[n+]([O-])cc1Oc1ccccc1 [4-METHYL-3-PHENOXYPYRIDINE-1-OXIDE, 4-methyl-3-phenoxypyridine-1-oxide]	85.3 mg/kg	11.2 mg/kg	76.1 mg/kg	Potentiates	Potentiates	Potentiates	Potentiates	Potentiates	TD50 ([1]; mouse, in vivo, ip): 76.2 mg/kg; TD50 ([1]; mouse, in vivo, po): 296 mg/kg; ED50 ([2]; ip, intraperitoneal, read-out: ED50 MES): 23.2 mg/kg; ED50 Strychnine (Strychnine): Ineffective
NC(=O)N1c2ccccc2C=Cc2ccccc21 [CARBAMAZEPINE]		8.5 mg/kg		Potentiates		Variable			ROTOROD TD50 ([8]; oral, rats): 813.06 mg/kg; Max. Prot. (Bicuculline) (Bicuculline; intraperitoneal, mice, at 50-130 mg/kg): 62.5%

From patent US4386094A, “4-Lower alkyl-3-phenoxypyridine-1-oxide and a method for its production” (priority 1980, dated 1983)
